The values that follow come from patent publication US20250099494A1, “PHOSPHONIC ACID COMPOUND AND PRODRUG THEREOF, AND PREPARATION METHODS FOR AND USES OF PHOSPHONIC ACID COMPOUND AND PRODRUG THEREOF” (HAIHE BIOPHARMA CO., LTD., priority 2022, published 2025).

In one data set the target is hENPP1-ECD-His (Homo sapiens (Human), UniProt P22413). The data set can be described thus: ENPP1 inhibitory activity, substrate 2',3'-cGAMP detection (AMP-Glo). Conditions: read-out: c-GAMP (IC50, nM), inhibitory effect on ENPP1.
The nature of data set [1]: Pharmacokinetic test experiment of mice. The class given is in vivo, ICR mice. Particulars: after oral administration. The method, then:
1. In each administration mode, 9 healthy ICR mice male, weighing 30-35 g, were randomly divided into 3 groups (M1, M2, M3) with 3 mice in each group. […] Feeding uniformly 4 hours after administration.

Data set [2] can be described thus: Pharmacokinetic test experiment for rats. Type of data set: in vivo, SD rats. Particulars: p.o. prodrug compound 7 (5 mg/kg) vs i.v. compound 1 (1 mg/kg). The protocol:
1. Six SD rats of 6-8 weeks old, male, were taken in each administration mode, and the tested compound was administered by gavage (5 mg/kg) and intravenous injection (1 mg/kg), respectively: fasting for 12 hours before the experiment and drinking water freely. Feeding uniformly 4 hours after administration.
Plasma collection and processing: at the above set time points, 150-200 μL of blood was collected via the plexus jugularis or a suitable part, placed in EDTA-K2 test tube, centrifuged at 3500 rpm for 10 min, plasma was separated, and frozen at −20° C. in a refrigerator.
LC/MS/MS method was used to determine the concentration of compounds in rats plasma. The pharmacokinetic parameters after administration were calculated using a non-compartmental model using Phoenix 8.3 software (Pharsight, USA).

Data set [3] is described as follows: Pharmacokinetic test experiment for dogs. Particulars: beagle dogs, p.o. prodrug compound 7 (2 mg/kg) vs i.v. compound 1 (1 mg/kg). The protocol: Feeding uniformly 4 hours after administration.
Blood was collected continuously, with 3 animals collected at each time point. Plasma collection and processing: at the above set time points, 1,000 μL of blood was collected via the plexus jugularis or a suitable part, placed in EDTA-K2 test tube, centrifuged at 3500 rpm for 10 min, plasma was separated, and frozen at −20° C. in a refrigerator.
LC/MS/MS method was used to determine the concentration of compounds in the beagle dogs plasma. The pharmacokinetic parameters after administration were calculated using a non-compartmental model using Phoenix 8.3 software (Pharsight, USA).

The conditions of data set [4]: mice, reported by the literature; cited from earlier work.

Sequence of hENPP1-ECD-His (P22413 98-925): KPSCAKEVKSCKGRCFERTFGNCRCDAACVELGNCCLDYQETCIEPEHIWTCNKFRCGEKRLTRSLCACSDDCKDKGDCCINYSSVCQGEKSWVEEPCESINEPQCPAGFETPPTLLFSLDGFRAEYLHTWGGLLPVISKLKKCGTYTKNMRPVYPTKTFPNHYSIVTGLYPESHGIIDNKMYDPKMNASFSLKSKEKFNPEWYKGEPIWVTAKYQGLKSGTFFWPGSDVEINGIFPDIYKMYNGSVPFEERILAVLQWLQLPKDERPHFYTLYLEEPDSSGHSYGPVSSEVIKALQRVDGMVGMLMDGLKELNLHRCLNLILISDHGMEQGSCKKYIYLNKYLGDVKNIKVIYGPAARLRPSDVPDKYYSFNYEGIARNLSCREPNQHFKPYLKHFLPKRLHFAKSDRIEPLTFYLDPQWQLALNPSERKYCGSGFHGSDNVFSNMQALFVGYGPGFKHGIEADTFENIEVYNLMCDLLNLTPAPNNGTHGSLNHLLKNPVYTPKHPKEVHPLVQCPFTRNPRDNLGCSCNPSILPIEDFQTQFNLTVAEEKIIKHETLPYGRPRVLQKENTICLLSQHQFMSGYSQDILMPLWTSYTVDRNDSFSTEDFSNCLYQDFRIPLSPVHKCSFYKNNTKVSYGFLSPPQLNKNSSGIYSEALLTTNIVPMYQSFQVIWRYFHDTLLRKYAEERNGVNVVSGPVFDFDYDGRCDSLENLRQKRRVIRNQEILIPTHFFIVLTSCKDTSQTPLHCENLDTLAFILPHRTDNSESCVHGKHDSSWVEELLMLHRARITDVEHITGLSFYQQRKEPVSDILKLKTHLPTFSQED
Experimental for hENPP1-ECD-His: The ENPP1 inhibitory activity of the compound of the present disclosure was tested in substrate 2′,3′-cGAMP detection.
Experimental objective: based on the established experimental method, the inhibitory IC50 value of the compound in the present application on ENPP1 was detected using 2′,3′-cGAMP as the substrate.
2. Preparation of compound concentration gradient: the tested compound was dissolved in DMSO (dimethyl sulfoxide) to an initial concentration of 10 μM, diluted at 3 times, with 10 concentrations, single well or multi-well testing was set. […] The compound was diluted by gradient in a 384 well plate to a solution with the final concentration of 1000 times, and then 5 nL of the solution was transferred to a 384 well reaction plate for testing using Echo550.5 nL of 100% DMSO was transferred from the smallest well and the largest well.
6. The reaction solution was centrifuged at 1000 rpm for 1 minute and incubated at room temperature for 15 minutes.
7. 2.5 μL 2× substrate solution was added to each well of the reaction plate, centrifuged at 1000 rpm for 1 minute, and incubated at room temperature for 60 minutes.
8. 5 μL of R1 solution (from AMP-Glo™ Kit) was added to each well of the reaction plate, centrifuged at 1000 rpm for 1 minute and incubated at room temperature for 120 minutes.
9. 10 μL of R2 solution (from AMP-Glo™ Kit) was added to each well of the reaction plate, centrifuged at 1000 rpm for 1 minute and incubated at room temperature for 30 minutes.
The inhibition rate is calculated using the following formula: • inhibition rate %=(maximum signal−compound signal)/(maximum signal−minimum signal)×100 • wherein the “minimum signal” represents the mean value of the negative control well, and the “maximum signal” represents the mean value of the positive control well.
Using the log value of concentration as the X-axis and the percentage inhibition rate as the Y-axis, the dose-response curve was fitted using the log(inhibitor) vs. response-variable slope of analysis software GraphPadPrism5 to obtain the inhibitory IC50 value of the compound of the present disclosure on enzyme activity.

The term IC50 denotes the concentration needed to halve the response being measured. As to `COc1ccc2c(Oc3ccc(CCP(=O)(O)O)cc3)ccnc2n1` [Compound 23], the IC50 on hENPP1-ECD-His came out at 37 nM.
On to `COc1ccc2c(Oc3ccc(CP(=O)(OCOC(=O)C(C)(C)C)OCOC(=O)C(C)(C)C)cc3)ccnc2n1` [Compound 7], for which the “time of conversion of prodrug to parent drug compound 1 in mice plasma” value in data set [1] is recorded as no more than 5 min. Besides, the “Bioavailability Oral BA (% F)” value in data set [2] is reported as 40 % F; in data set [3], 21 % F.
In the case of `COc1ccc2c(Oc3c(F)cc(CP(=O)(O)O)cc3F)ccnc2n1` [Compound 3], the half-maximal inhibitory concentration (IC50) on hENPP1-ECD-His came to 18 nM.
Take `COc1cccc2c(N3CCC(CCP(=O)(O)O)CC3)ncnc12` [STF32, reference compound]: the IC50 on hENPP1-ECD-His is 6.2 nM. The “half-life of injection administration T1/2” value in data set [4] is given as 14 min.
`COc1ccc2c(Oc3cc(F)c(CP(=O)(O)O)c(F)c3)ccnc2n1` [Compound 5]: on hENPP1-ECD-His, the IC50 amounted to 11 nM.
Still for that read-out and setting: the same measure for `COc1ccc2c(Nc3ccc(CP(=O)(O)O)nc3)ccnc2n1` [Compound 20]: 2.1 nM; for `COc1ccc2c(Nc3ccc(CP(=O)(O)O)cn3)ccnc2n1` [Compound 21]: 5 nM; for `COc1ccc2c(Oc3cc(F)c(CP(=O)(O)O)cc3F)ccnc2n1` [Compound 6]: 11 nM.
On the same count and under the same terms, the same measure for `COc1ccc2c(Nc3ccc(CP(=O)(O)O)cc3)ncnc2n1` [Compound 13]: 0.94 nM.
`COc1ccc2c(Oc3ccc(CP(=O)(OCOC(=O)OC(C)C)OCOC(=O)OC(C)C)cc3)ccnc2n1` [Compound 8]: the “time of conversion of prodrug to parent drug compound 1 in mice plasma” value in data set [1] is no more than 5 min.
As for `COc1cc2ncnc(Nc3ccc(CP(=O)(O)O)cc3)c2cc1OC` [STF22, reference compound], the IC50 at hENPP1-ECD-His is 63 nM.
